Like-named read-outs stand apart in the source and are kept apart here. Blank lines part the entries; values can stand above or below the molecule they belong to.
Experiments:
TDP2 [1] = biological target: T1, TDP2 (Homo sapiens (Human), UniProt O95551); test: gel-based TDP2 fluorescence assay in vitro; assay type: biochemical; conditions: read-out: TDP2 IC50
Procedure: (§1) (TDP assay buffer: 50 mM Tris HCl, pH 7.5, 80 mM KCl, 2 mM EDTA, 1 mM DTT, 40 μg/ml BSA and 0.01% Tween-20. TDP1 (20 mg/mL in 25 mM Tris-HCl pH 7.2, 150 mM NaCl, 2 mM tris(2-carboxyethyl)phosphine) with 2 mL of well solution composed of 0.1 M MOPS/HEPES pH 7.5, 10% (w/v) PEG 8000, 20% (v/v) ethylene glycol, 0.03 M sodium fluoride, 0.03 M sodium bromide, 0.03 M sodium iodide, 0.03 M sodium bromide and sealed over […] well solution. AF647 labelling buffer: Tris-HCl (pH 7.2, 25 mM), NaCl (150 mM), and tris(2-carboxyethyl)phosphine hydrochloride (TCEP, 2 mM).)
(§2) (DNA only: Buffer+DMSO. DMSO only: Enzyme+DMSO. Drug: Enzyme+Drug, 25° C., 10 min+DNA, reaction at 25° C., 15 min.)

TDP1 [2] = biological target: T2, TDP1 (Homo sapiens (Human), UniProt Q9NUW8); test: Degradation assay (western blotting) of TDP1 in HCT116 and HEK293 cells; assay type: cell-based; conditions: for TDP1 degradation in cells: 200 uM concentration; for TDP1 degrading activity: list in description
T2 sequence (Q9NUW8 whole entry): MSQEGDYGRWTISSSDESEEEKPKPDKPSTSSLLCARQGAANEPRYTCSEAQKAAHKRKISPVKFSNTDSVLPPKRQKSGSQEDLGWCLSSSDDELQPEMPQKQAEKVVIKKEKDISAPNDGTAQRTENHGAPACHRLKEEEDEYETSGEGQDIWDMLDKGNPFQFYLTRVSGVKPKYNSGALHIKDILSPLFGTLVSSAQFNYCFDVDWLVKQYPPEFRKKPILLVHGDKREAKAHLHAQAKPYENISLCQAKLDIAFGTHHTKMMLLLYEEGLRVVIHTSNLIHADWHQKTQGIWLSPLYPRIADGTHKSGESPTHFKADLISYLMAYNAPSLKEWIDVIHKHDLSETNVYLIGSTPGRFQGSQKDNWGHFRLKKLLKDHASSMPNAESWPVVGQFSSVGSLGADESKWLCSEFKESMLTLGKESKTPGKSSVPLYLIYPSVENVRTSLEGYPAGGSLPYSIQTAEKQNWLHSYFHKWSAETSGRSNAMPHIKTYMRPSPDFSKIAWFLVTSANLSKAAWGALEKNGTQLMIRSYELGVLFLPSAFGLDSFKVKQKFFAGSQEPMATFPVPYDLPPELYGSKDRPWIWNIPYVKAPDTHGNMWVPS
Procedure: The degradation effect of the TDP1 inhibitors on TDP1 in human colon cancer cell line HCT116 and embryonic kidney cell line HEK293 were studied. Cells were first seeded in a 6-well plate until 60-80% confluency and then incubated with a serial dilution of TDP1 inhibitors at the range of 25-200 μM for 24-72 h at 37° C. […] Samples were then sonicated at 30% for 10 s and centrifuged for 15 min at 15000 rpm at 4 Celsius. Supernatant were collected and the concentration of total protein were measured by BCA Protein Assay Kit according to its protocols. Four micrograms of total protein for each sample were loaded and TDP1 level were conducted by western blotting.

[3] = tested on: human colon cancer cell line HCT116; test: Synergistic effect with camptothecin (CPT) based on cell viability; conditions: for Synergy Score: with camptothecin (CPT), HCT116, 72 h, SynergyFinder 2.0; for synergy with camptothecin: list in description
Procedure: The synergistic effects of the TDP1 inhibitors with CPT were tested in human colon cancer cell line HCT116 based on cell viability (Table 3, FIGS. 2-5). Cells were first seeded in a 384-well black-clear plate until 30% confluency and then incubated with a serial dilution of CPT at the range of 0-100 nM in the present or the absence of TDP1 inhibitors for 72 h at 37° C. Viable cell numbers were counted from the brightfield images taken by Biotek Cytation 5 (FIGS. 2-3). Fractional affect (Fa) and combination index (Ci) were analyzed with CompuSyn software. Synergistic scores of each TDP1 inhibitors were calculated and collected based on the data analysis from SynergyFinder (FIG. 4). […]

TDP1 [4] = biological target: T2, TDP1; test: TDP1 gel-based in vitro fluorescence assay; assay type: biochemical
Procedure: as §1, §2
Gel images were scanned using a Typhoon FLA 9500 scanner (GE Healthcare) and densitometric analyses were performed using the ImageQuant software (GE Healthcare). The IC50 of TDP1 inhibitors was calculated by comparing the percentage of cleavage product (5′Cy5-[…]-p-3′) to DMSO control.

TDP2 [5] = biological target: T1, TDP2; test: TDP2 degrading activity as stated in the description; conditions: list in description
[6] = Table 7, HPLC-purified oxime leads
[7] = Table 8, lead compounds with different linkers
[8] = Table 8, lead compounds with different linkers, read-out: TDP1 IC50
[9] = Table 7, ratio of IC50 TDP2 to TDP1
[10] = Table 1, imidazo[1,2-a]pyridin-3-amines, read-out: IC50
[11] = Table 10, PROTACs, read-out: TDP1 IC50

T1 sequence (O95551 whole entry, species assumed): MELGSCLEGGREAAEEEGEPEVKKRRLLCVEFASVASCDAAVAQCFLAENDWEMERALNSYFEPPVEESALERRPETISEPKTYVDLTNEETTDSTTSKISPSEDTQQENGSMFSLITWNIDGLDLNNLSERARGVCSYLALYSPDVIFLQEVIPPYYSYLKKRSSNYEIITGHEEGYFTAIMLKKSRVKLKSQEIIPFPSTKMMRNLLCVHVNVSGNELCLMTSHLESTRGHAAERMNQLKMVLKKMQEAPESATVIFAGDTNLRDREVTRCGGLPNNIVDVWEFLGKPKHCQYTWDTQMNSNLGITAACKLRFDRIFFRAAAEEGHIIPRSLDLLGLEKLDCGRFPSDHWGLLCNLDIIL

- IC50 (TDP2 [1]; [6]): > 100 µM
- IC50 (TDP2 [1]; [7]): > 100 µM
- TDP1 degradation in cells (TDP1 [2]): does not
- TDP1 degrading activity (TDP1 [2]): exhibit TDP1 degrading activity
Molecule: O=C(O)c1ccc(Nc2c(-c3ccccc3)nc3ccccn23)cc1 [XZ615]

- IC50 (TDP2 [1]; Table 3): > 100 µM
Molecule: O=C(O)c1ccc(Nc2c(-c3ccccc3)nc3ccccn23)cc1 [Compound 8a, 4-((2-Phenylimidazo[1,2-a]pyridin-3-yl)amino)benzoic acid]
- Synergy Score [3]: −1.3

- IC50 (TDP1 [4]; [8]): 25.6 ± 4.05 µM
- IC50 (TDP2 [1]; [7]): > 100 µM
- TDP1 degrading activity (TDP1 [2]): exhibit TDP1 degrading activity
Molecule: N#Cc1ccc(-c2ccc(CO/N=C/c3ccc(-c4nc5cc(-c6ccccc6)ccn5c4Nc4ccc(C(=O)O)cc4)cc3)cc2)nc1 [XZ725]
- synergy with camptothecin [3]: exhibit synergy with camptothecin

Molecule: N#Cc1ccc(-c2ccc(Cn3cc(-c4ccc5nc(-c6ccccc6)c(Nc6ccc(C(=O)O)cc6)n5c4)nn3)cc2)nc1 [XZ723, 4-((6-(1-(4-(5-Cyanopyridin-2-yl)benzyl)-1H-1,2,3-triazol-4-yl)-2-phenylimidazo[1,2-a]pyridin-3-yl)amino)benzoic acid]
- IC50 (TDP1 [4]; [8]): 66.4 ± 3.7 µM
- FC (fold change) (TDP1 [4]; Table 8, ratio of IC50 TDP2 to TDP1): 1
- IC50 (TDP2 [1]; [7]): 69.1 ± 11.8 µM
- TDP2 degrading activity (TDP2 [5]): exhibit TDP2 degrading activity

- FC (fold change) (TDP1 [4]; [9]): 1
- IC50 (TDP1 [4]; purified oximes and SMM leads, read-out: TDP1 IC50): ~10 µM
- IC50 (TDP2 [1]; [6]): 10.9 ± 1.1 µM
- IC50 (TDP2 [1]; purified oximes): ~10 µM
- TDP2 degrading activity (TDP2 [5]): exhibit TDP2 degrading activity
Molecule: O=C(O)c1ccc(Nc2c(-c3ccc(CO/N=C/c4ccc(N5CCCC5=O)cc4)cc3)nc3cc(-c4ccccc4)ccn23)cc1 [XZ703, (E)-4-((2-(4-((((4-(2-Oxopyrrolidin-1-yl)benzylidene)amino)oxy)methyl)phenyl)-7-phenylimidazo[1,2-a]pyridin-3-yl)amino)benzoic acid]

Molecule: O=C(O)c1ccc(Nc2c(-c3ccccc3)nc3ccc(C(=O)O)cn23)cc1 [Compound 8m, 3-((4-Carboxyphenyl)amino)-2-phenylimidazo[1,2-a]pyridine-6-carboxylic acid]
- IC50 (TDP1 [4]; [10]): 0.9 µM
- synergy with camptothecin [3]: exhibit synergy with camptothecin

Molecule: 4-((2-(4-(2-((4-(5-((λ^2-Azaneylidene)-λ^3-methyl)pyridin-2-yl)phenyl)methoxy)ethyl)phenyl)imidazo[1,2-a]pyridin-3-yl)amino)benzoic acid [XZ727]
- IC50 (TDP2 [1]; [7]): 70.5 ± 13.5 µM
- TDP2 degrading activity (TDP2 [5]): exhibit TDP2 degrading activity

Molecule: CS(=O)(=O)c1ccc2nc(-c3ccccc3)c(Nc3ccc([N+](=O)[O-])cc3)n2c1 [Compound 6u, 6-(Methylsulfonyl)-N-(4-nitrophenyl)-2-phenylimidazo[1,2-a]pyridin-3-amine]
- IC50 (TDP1 [4]; [10]): 16.1 µM
- synergy with camptothecin [3]: exhibit synergy with camptothecin

Molecule: O=C(O)c1ccc(Nc2c(-c3ccccc3O)nc3cnccn23)cc1 [Compound M7]
- synergy with camptothecin [3]: exhibit synergy with camptothecin
- Synergy Score [3]: 15.6

- IC50 (TDP2 [1]; Table 3): > 100 µM
Molecule: O=C(O)c1ccc(Nc2c(-c3ccccc3)nc3cc(C(=O)O)ccn23)cc1 [Compound 8s, 3-((4-Carboxyphenyl)amino)-2-phenylimidazo[1,2-a]pyridine-7-carboxylic acid]
- synergy with camptothecin [3]: exhibit synergy with camptothecin
- Synergy Score [3]: 20.7

Molecule: CS(=O)(=O)c1ccc2nc(-c3ccccc3)c(Nc3ccc(C(=O)O)cc3)n2c1 [Compound 8q, 4-((6-(Methylsulfonyl)-2-phenylimidazo[1,2-a]pyridin-3-yl)amino)benzoic acid]
- TDP1 Selectivity (TDP1 [4]; ratio of IC50 values of TDP1/TDP2): 26
- Synergy Score [3]: 9.5

- IC50 (TDP2 [1]; Table 3): > 100 µM
Molecule: O=C(O)c1ccc(Nc2c(-c3ccccc3)nc3cnccn23)cc1 [Compound 7b, 4-((2-Phenylimidazo[1,2-a]pyrazin-3-yl)amino)benzoic acid]
- Synergy Score [3]: 3

Molecule: N#Cc1ccc(-c2ccc(/C=N\OCc3ccc(-c4nc5cc(-c6ccccc6)ccn5c4Nc4ccc(C(=O)O)cc4)cc3)cc2)nc1 [XZ708, (Z)-4-((2-(4-((((4-(5-Cyanopyridin-2-yl)benzylidene)amino)oxy)methyl)phenyl)-7-phenylimidazo[1,2-a]pyridin-3-yl)amino)benzoic acid]
- FC (fold change) (TDP1 [4]; [9]): >18
- IC50 (TDP2 [1]; [6]): > 100 µM
- synergy with camptothecin [3]: exhibit synergy with camptothecin

Molecule: N#Cc1ccc(-c2ccc(/C=N/OCc3ccc4nc(-c5ccccc5)c(Nc5ccc(C(=O)O)cc5)n4c3)cc2)nc1 [XZ706, (E)-4-((6-((((4-(5-cyanopyridin-2-yl)benzylidene)amino)oxy)methyl)-2-phenylimidazo[1,2-a]pyridin-3-yl)amino)benzoic acid]
- IC50 (TDP1 [4]; Table 7, HPLC-purified oxime leads, read-out: TDP1 IC50): 17.4 ± 3.2 µM
- FC (fold change) (TDP1 [4]; [9]): 4
- loss of TDP1 potency relative to 102 (TDP1 [4]; fold loss versus 102): about 2 fold
- IC50 (TDP2 [1]; [6]): 62.1 ± 10.1 µM
- synergy with camptothecin [3]: exhibit synergy with camptothecin

- IC50 (TDP1 [4]; [8]): > 100 µM
- IC50 (TDP2 [1]; [7]): > 100 µM
- TDP1 degrading activity (TDP1 [2]): exhibit TDP1 degrading activity
Molecule: N#Cc1ccc(-c2ccc(CO/N=C/c3ccc(-c4nc5ccccn5c4Nc4ccc(C(=O)O)cc4)cc3)cc2)nc1 [XZ724]

- IC50 (TDP1 [4]; [11]): > 100 µM
- IC50 (TDP2 [1]; Table 10, PROTACs): > 100 µM
Molecule: O=C(COc1cccc2c1C(=O)N(C1CCC(=O)NC1=O)C2=O)NCCCCn1cc(COc2ccc(-c3nc4ccccn4c3Nc3ccc(C(=O)O)cc3)cc2)nn1 (stereo not shown) [XZ688, 4-((2-(4-((1-(4-(2-((2-(2,6-Dioxopiperidin-3-yl)-1,3-dioxoisoindolin-4-yl)oxy)acetamido)butyl)-1H-1,2,3-triazol-4-yl)methoxy)phenyl)imidazo[1,2-a]pyridin-3-yl)amino)benzoic acid]

- IC50 (TDP2 [1]; Table 3): > 100 µM
- IC50 (TDP2 [1]; [6]): > 100 µM
- IC50 (TDP2 [1]; [7]): > 100 µM
- TDP1 degradation in cells (TDP1 [2]): shows TDP1 degradation
- TDP1 degrading activity (TDP1 [2]): exhibit TDP1 degrading activity
Molecule: O=C(O)c1ccc(Nc2c(-c3ccccc3)nc3cc(-c4ccccc4)ccn23)cc1 [XZ664, 4-((2,7-Diphenylimidazo[1,2-a]pyridin-3-yl)amino)benzoic acid]
- Synergy Score [3]: 9.1

- IC50 (TDP2 [1]; Table 3): > 100 µM
Molecule: O=C(O)c1ccc(Nc2c(-c3ccccc3)nc3ccccn23)cc1C(=O)O [Compound 10b, 4-((2-Phenylimidazo[1,2-a]pyridin-3-yl)amino)phthalic acid]
- synergy with camptothecin [3]: exhibit synergy with camptothecin
- Synergy Score [3]: 17.9

Molecule: O=C(O)c1ccc(Nc2c(-c3ccccc3)nc3ccc(Br)cn23)cc1 [Compound 8o, 4-((6-Bromo-2-phenylimidazo[1,2-a]pyridin-3-yl)amino)benzoic acid]
- IC50 (TDP1 [4]; [10]): 1.6 µM
- synergy with camptothecin [3]: exhibit synergy with camptothecin

Molecule: O=S(=O)(F)c1ccc(Nc2c(-c3ccccc3)nc3ccccn23)cc1 [XZ734, 4-((2-Phenylimidazo[1,2-a]pyridin-3-yl)amino)benzenesulfonyl fluoride]
- IC50 (TDP1 [4]; Table 9, fluorosulfates and sulfonyl fluorides, read-out: TDP1 IC50): > 100 µM
- IC50 (TDP2 [1]; Table 9, fluorosulfates and sulfonyl fluorides): > 100 µM
- TDP1 degradation by covalent inhibitors (TDP1 [2]; FIG. 39): degrade TDP1
- TDP1 degrading activity (TDP1 [2]): exhibit TDP1 degrading activity

- IC50 (TDP1 [4]; [11]): > 100 µM
- IC50 (TDP2 [1]; Table 10, PROTACs): > 100 µM
Molecule: Cc1ncsc1-c1ccc(CNC(=O)[C@@H]2C[C@@H](O)CN2C(=O)[C@@H](NC(=O)COCCOCCOCCn2cc(COc3ccc(-c4nc5cc(-c6ccccc6)ccn5c4Nc4ccc(C(=O)O)cc4)cc3)nn2)C(C)(C)C)cc1 [XZ680, 4-((2-(4-((1-((S)-13-((2S,4R)-4-hydroxy-2-((4-(4-methylthiazol-5-yl)benzyl)carbamoyl)pyrrolidine-1-carbonyl)-14,14-dimethyl-11-oxo-3,6,9-trioxa-12-azapentadecyl)-1H-1,2,3-triazol-4-yl)methoxy)phenyl)-7-phenylimidazo[1,2-a]pyridin-3-yl)amino)benzoic acid]

From patent US20250011330A1, “Imidazo[1,2- a]pyrazine and Imidazo[1,2- a]pyridine Based Tyrosyl-DNA Phosphodiesterase I (TDP1) Inhibitors” (The USA, As Represented by the Secretary, Department of …, priority 2021, published 2025)
